One data set has as its target T1, eIF4E (Homo sapiens, UniProt P06730).
T1 construct: assessed the effects on the endogenous levels of eIF4E; endogenous in cells; host or cells: HeLa
Nature of the data set: Western blot of endogenous eIF4E (and eIF4A, eIF4G, FITC) in HeLa cells. The class given is cell-based. As to conditions: 3 h, result in words; for eIF4E degradation, PROTAC versus individual warheads: 10 µM. The protocol: Western blot procedures for cell-based assays
Three washes with 1 mL PBS were performed before harvesting cells with a cell lifter. The cells were frozen in liquid nitrogen and stored at -70°C. The lysis buffer comprised 50 mM Tris-HCl (pH 7.5), 150 mM NaCl, 1% Triton-X, 1% SDS, 1 μL benzonase and one tablet of the Pierce TM Protease Inhibitor Tablets, EDTA-free (ThermoFisher Sceintific) in PBS except for HA-tag and Myc-tag IP. As for HA-tag and Myc-tag IP, the lysis buffer consisted of 50 mM Tris-HCl (pH 7.5), 150 mM NaCl, 1 mM EDTA, 1% IGEPAL CA-630, 10% glycerol, 20 μM PMSF, 1 mM DTT, and a single Protease Inhibitor Tablet in PBS.
The cells were lysed in 35 μL lysis buffer at 4°C by vortexing every 10 min over a period of 90 min. Protein concentration in the cell lysate was measured by Bradford assay.
Lysates were immunoprecipitated in addition to inputs when appropriate. SDS-PAGE and immunoblotting analysis were performed subsequently. […]
CellTiter-Glo2.0 Cell Viability Assay […]
A 13-point serial dilution series of 0.163 μM –
24.4 μM of each peptide dissolved in DMSO was dispensed with the highest concentration of DMSO at less than 0.5%. Three replicates were run per condition. The assay plate was incubated for 3 hr or 8 hr at 37°C, 5% CO 2. Following this, the liquid on the assay plate was removed using the Bluewasher. […]
Comparison of CP-eIFTerminator peptides and warheads in HeLa cells
HeLa cells were seeded in 6 cm dishes at a cell density of 1.5 x10^6 per dish. After overnight incubation at 37°C, 5% CO 2, cells were treated with […] along with 10 μM of respective cell-penetrating peptides. Peptides were reconstituted in water immediately before addition to the cell culture. An equal volume of water was added as a negative control.
Cells were harvested 3 hr after peptide incubation at 37°C, 5% CO 2 for western blot analysis.
Anti-actin, anti-eIF4EA, anti-eIF4E, anti-eIF4G, and anti-FITC antibodies, as well as […]
secondary IgG in Table 3 were used for Western blot.
Time course of CP-eIFTerminator4 in HeLa cells
0.5 x 10^6 HeLa cells were seeded in 35 mm dishes. A time course experiment was initiated after overnight incubation at 37°C, 5% CO 2. For each time point (0.5, 3, 6, 12, 24 hr), cells were treated with fresh medium containing 100 ng/mL EGF along with 20 μM CP-eIFTerminator4 or water. All dishes were harvested at the same time, after varying incubations with the peptide.
Titration of CP-eIFTerminator4 in HeLa and U-2 OS cells […]
Immediately after this, 2.5 μM, 10 μM, or 50 μM CP-eIFTerminator4 was added to U-2 OS cells. 5 μM, 10 μM, or 20 μM CP-eIFTerminator4 was added in the case of HeLa cells. […]
15022) or 50 μM chloroquine (Cell Signaling Technology, Cat. No.: 14774S) and incubated for 4 hr at 37 °C, 5% CO 2. […] The cell lysates were analysed by western blot. […]
Background: A western blot detects proteins with antibodies after separation by electrophoresis.

The test system of a further data set is HeLa cells. Nature of the data set: CellTiter-Glo2.0 cell viability assay. The class given is cell-based. As to conditions: for viable cells (lowest): concentrations of 16.10 µM or higher. The protocol: Supplementary Figure 5. Characterisation of cytotoxicity effects of CP-eIFTerminators and […]
A. Measurement of cell viability (%) in HeLa cells following 3-hr treatments with cell-penetrating peptides. A Cell Titer-Glo2.0 cell viability assay was performed to assess viability of HeLa cells following a 3-hr treatment with a dilution series of each CP-eIFTerminator or parental warhead (CP-CBLock or CP-eIF4G1-D5S). The concentration range of each peptide in the 13-point serial dilution was 0.16-24.4 μM.
Data on CP-eIFTerminator2 are not shown as it was insoluble (n = 3, mean ± Standard error of the mean (SEM)).
B. Measurement of cell viability (%) in HeLa cells following 8 hr treatments with cell- […]
viability of HeLa cells following an 8-hr treatment with a dilution series of each CP-eIFTerminator, CP-CBLock, or CP-eIF4G1-D5S. The concentration range of each peptide in the 13-point serial dilution was 0.16-24.4 μM. CP-eIFTerminator2 was not
(1 picture or pasted object on this page, not shown here)
MgCl2. After the liquid was removed, 30 μL 2x LDS mix (prepared as described above) was used to elute the IP samples. The samples were boiled at 92°C for 10 min and 28 μL were loaded on a 4-12% Bis-Tris SDS-PAGE gel, along with the whole cell lysates that were prepared in 75 μL RIPA buffer. The gel was subsequently transferred and western blotted.
Antibodies included anti-actin, anti-HA, anti-K48 antibodies as primaries, as well as IRDye800CW goat anti-mouse IgG secondary antibody and IRDye680LT goat anti-rabbit […]
CellTiter-Glo2.0 Cell Viability Assay
Cells were seeded onto a Greiner 384 small volume plate using a Multidrop TM Combi Reagent Dispenser (Thermo Scientific). The seeding density was 2000 cells/well in a volume of 15 μL per well. After incubating the 384-well plate overnight at 37°C, 5% CO 2, the medium on the plate was removed using a Bluewasher (Blue Cat Bio). […] The plate was read using a PHERAstar FSX (BMG Labtech). Raw data were exported from the Pherastar as a Microsoft Excel file and analysed in Excel, and the processed data were plotted in GraphPad Prism v9.5.1. […]
A general note: ATP-based viability assays read luminescence as a measure of living cells.

Where a SMILES comes first, the peptide text is derived from it.

T1 sequence (P06730 whole entry): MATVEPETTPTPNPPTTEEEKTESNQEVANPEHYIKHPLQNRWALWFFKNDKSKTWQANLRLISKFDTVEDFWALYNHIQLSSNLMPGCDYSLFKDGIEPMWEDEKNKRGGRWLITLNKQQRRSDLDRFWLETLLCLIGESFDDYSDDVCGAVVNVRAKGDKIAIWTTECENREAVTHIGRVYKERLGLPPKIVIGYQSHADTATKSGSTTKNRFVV

Turning to “N'-RQIKIWFQNRRMKWKKGGSMTVEEMDSWIKSWDQR-C' [CP-CBLock]”, on eIF4E, the “eIF4E degradation, PROTAC versus individual warheads” value is reported as “do not trigger eIF4E degradation”; the “effect on eIF4A1, eIF4E and eIF4G1 levels” value was “minimal effects”.
As for `CC[C@H](C)[C@H](NC(=O)[C@H](CCCCN)NC(=O)[C@@H](NC(=O)[C@H](CCC(N)=O)NC(=O)[C@@H](N)CCCNC(=N)N)[C@@H](C)CC)C(=O)N[C@@H](Cc1c[nH]c2ccccc12)C(=O)N[C@@H](Cc1ccccc1)C(=O)N[C@@H](CCC(N)=O)C(=O)N[C@@H](CC(N)=O)C(=O)N[C@@H](CCCNC(=N)N)C(=O)N[C@@H](CCCNC(=N)N)C(=O)N[C@@H](CCSC)C(=O)N[C@@H](CCCCN)C(=O)N[C@@H](Cc1c[nH]c2ccccc12)C(=O)N[C@@H](CCCCN)C(=O)N[C@@H](CCCCN)C(=O)NCC(=O)NCC(=O)N[C@@H](CO)C(=O)N[C@@H](CCCCN)C(=O)N[C@@H](CCCCN)C(=O)N[C@@H](CCCNC(=N)N)C(=O)N[C@@H](Cc1ccc(O)cc1)C(=O)N[C@@H](CO)C(=O)N[C@@H](CCCNC(=N)N)C(=O)N[C@@H](CCC(=O)O)C(=O)N[C@@H](Cc1ccccc1)C(=O)N[C@@H](CC(C)C)C(=O)N[C@@H](CC(C)C)C(=O)NCC(=O)N[C@@H](Cc1ccccc1)C(N)=O` [CP-eIF4G1-D5S] (H-RQIKIWFQNRRMKWKKGGSKKRYSREFLLGF-NH2; N-terminus assumed), the “viable cells (lowest)” value in the data set with HeLa cells (3 h post-peptide treatment) was no less than 35%; in the data set with HeLa cells (8 h post-peptide treatment) it was no less than 25%. Further, the “concentration at which cytotoxicity was exhibited” value in the data set on HeLa cells (CellTiter-Glo2.0, 0.16–24.4 µM, 3 h and 8 h, 100 ng/mL EGF, n = 3) is reported as no less than 16.10 µM. Further, the “eIF4E degradation, PROTAC versus individual warheads” value on eIF4E is “do not trigger eIF4E degradation”. Moreover, on eIF4E, the “effect on eIF4A1, eIF4E and eIF4G1 levels” value is listed as “minimal effects”.

For the origin of these results see paper PMC12774438, “CBL ubiquitin ligase targets translation as a degrader E3” (Chemical Science, 2025).
